Measurements from the supplement of paper PMC10307832.

These cell lines were tested with Cn1c(=O)n(-c2ccc(C(C)(C)C#N)cc2)c2c3cc(-c4cnc5ccccc5c4)ccc3ncc21 [Dactolisib] + COc1cc2c(Oc3ccc(NC(=O)C4(C(=O)Nc5ccc(F)cc5)CC4)cc3F)ccnc2cc1OCCCN1CCOCC1 [Foretinib] (partner 0.25 µM) (assay: relative viability (nuclei count vs DMSO), 5 days (fraction); higher = more cells survive). Conditions: first compound 0.002 µM.
Procedure, shortened: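 Cells from lung cancer lines were seeded into 1536-well plates and, one day later, dosed by pin tool. Treatments were either a single drug or a fixed dose of an anchor drug with five library-drug doses (not always all listed) in √10 steps. After 5 days, nuclei were stained in a one-step fixation (final 0.05% Triton X-100, 1% formaldehyde, 1 ug/ml Hoechst) and counted on 4× images, and relative viability is the treated-to-vehicle nuclei ratio, as the median of duplicate plates.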

Row | Cell Line | relative viability
1 | EMC-BAC-2 | 1.04
2 | NCI-H2085 | 1.09
3 | Calu-6 | 0.826
4 | HCC-366 | 0.914
5 | NCI-H1666 | 0.968
6 | NCI-H596 | 0.83
7 | LK-2 | 1.19
8 | NCI-H2087 | 0.979
9 | SK-MES-1 | 1.04
10 | H3255 | 0.989
11 | IA-LM | 1.28
12 | A549 | 1.03
13 | SW 900 | 1.03
14 | NCI-H661 | 1.04
15 | NCI-H1299 | 1.09
16 | NCI-H1563 | 0.919
17 | ABC-1 | 1.03
18 | NCI-H358 | 0.738
19 | NCI-H650 | 0.981

Same assay, conditions: first compound 0.006325 µM

Row | Cell Line | relative viability
20 | NCI-H2342 | 0.96
21 | NCI-H1623 | 0.882
22 | NCI-H727 | 0.882
23 | NCI-H1650 | 1.05
24 | EBC-1 | 0.0977
25 | NCI-H1703 | 0.389
26 | NCI-H1993 | 0.774
27 | SK-LU-1 | 0.713
28 | NCI-H838 | 0.876
29 | LCLC-103H | 0.763
30 | NCI-H520 | 0.507
31 | NCI-H2126 | 1.24
32 | EMC-BAC-2 | 0.976
33 | NCI-H2085 | 1.05
34 | Calu-6 | 0.915
35 | HCC-366 | 0.986

Row | Cell Line | relative viability
36 | NCI-H1666 | 0.993
37 | NCI-H596 | 0.809
38 | LK-2 | 0.997
39 | NCI-H2087 | 0.919
40 | SK-MES-1 | 0.818
41 | H3255 | 0.851
42 | IA-LM | 1.07
43 | A549 | 0.84
44 | SW 900 | 0.828
45 | NCI-H661 | 1.01
46 | NCI-H1299 | 1.1
47 | NCI-H1563 | 0.885
48 | ABC-1 | 1.11
49 | NCI-H358 | 0.769
50 | NCI-H650 | 1.02

Same assay, conditions: first compound 0.02 µM

Row | Cell Line | relative viability
51 | NCI-H2342 | 0.855
52 | NCI-H1623 | 0.768
53 | NCI-H727 | 0.762
54 | NCI-H1650 | 0.919
55 | EBC-1 | 0.103
56 | NCI-H1703 | 0.381
57 | NCI-H1993 | 0.61
58 | SK-LU-1 | 0.575
59 | NCI-H838 | 0.606
60 | LCLC-103H | 0.654
61 | NCI-H520 | 0.464
62 | NCI-H2126 | 1.08
63 | EMC-BAC-2 | 0.984
64 | NCI-H2085 | 0.747
65 | Calu-6 | 0.879
66 | HCC-366 | 0.955

Row | Cell Line | relative viability
67 | NCI-H1666 | 0.987
68 | NCI-H596 | 0.473
69 | LK-2 | 0.766
70 | NCI-H2087 | 0.817
71 | SK-MES-1 | 0.906
72 | H3255 | 0.793
73 | IA-LM | 0.837
74 | A549 | 0.678
75 | SW 900 | 0.832
76 | NCI-H661 | 0.977
77 | NCI-H1299 | 1.11
78 | NCI-H1563 | 0.913
79 | ABC-1 | 0.665
80 | NCI-H358 | 0.623
81 | NCI-H650 | 1.05

Same assay, conditions: first compound 0.06325 µM

Row | Cell Line | relative viability
82 | NCI-H2342 | 0.679
83 | NCI-H1623 | 0.596
84 | NCI-H727 | 0.4
85 | NCI-H1650 | 0.781
86 | EBC-1 | 0.103
87 | NCI-H1703 | 0.281
88 | NCI-H1993 | 0.473
89 | SK-LU-1 | 0.382
90 | NCI-H838 | 0.288
91 | LCLC-103H | 0.517
92 | NCI-H520 | 0.278
93 | NCI-H2126 | 0.653
94 | EMC-BAC-2 | 0.501
95 | NCI-H2085 | 0.337
96 | Calu-6 | 0.531
97 | HCC-366 | 0.94

Row | Cell Line | relative viability
98 | NCI-H1666 | 0.791
99 | NCI-H596 | 0.316
100 | LK-2 | 0.444
101 | NCI-H2087 | 0.378
102 | SK-MES-1 | 0.571
103 | H3255 | 0.724
104 | IA-LM | 0.497
105 | A549 | 0.202
106 | SW 900 | 0.576
107 | NCI-H661 | 0.439
108 | NCI-H1299 | 0.982
109 | NCI-H1563 | 0.654
110 | ABC-1 | 0.427
111 | NCI-H358 | 0.312
112 | NCI-H650 | 0.712

Same assay, conditions: first compound 0.2 µM

Row | Cell Line | relative viability
113 | NCI-H2342 | 0.525
114 | NCI-H1623 | 0.418
115 | NCI-H727 | 0.425
116 | NCI-H1650 | 0.531
117 | EBC-1 | 0.0903
118 | NCI-H1703 | 0.325
119 | NCI-H1993 | 0.492
120 | SK-LU-1 | 0.245
121 | NCI-H838 | 0.342
122 | LCLC-103H | 0.303
123 | NCI-H520 | 0.198
124 | NCI-H2126 | 0.498
125 | EMC-BAC-2 | 0.484
126 | NCI-H2085 | 0.301
127 | Calu-6 | 0.543
128 | HCC-366 | 0.368
129 | NCI-H1666 | 0.762
130 | NCI-H596 | 0.242
131 | LK-2 | 0.196
